Molecular target: GPR55 (Homo sapiens, UniProt Q9Y2T6)
Assay: cell rounding, dose response, GPR55-expressing vs empty-vector HEK293 cells
Format: cell-based

Sequence of GPR55 (Q9Y2T6 whole entry): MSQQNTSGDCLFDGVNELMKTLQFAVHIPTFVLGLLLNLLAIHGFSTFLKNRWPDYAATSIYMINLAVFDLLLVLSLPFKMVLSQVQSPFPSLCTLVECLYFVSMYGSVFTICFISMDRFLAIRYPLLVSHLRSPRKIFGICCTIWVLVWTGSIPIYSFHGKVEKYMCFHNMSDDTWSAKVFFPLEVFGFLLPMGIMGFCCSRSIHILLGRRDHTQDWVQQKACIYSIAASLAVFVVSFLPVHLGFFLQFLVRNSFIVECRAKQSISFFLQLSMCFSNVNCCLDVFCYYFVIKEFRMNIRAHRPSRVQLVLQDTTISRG

SMILES: Cc1c(C(=O)NN2CCCCC2)nn(-c2ccc(Cl)cc2Cl)c1-c1ccc(Cl)cc1 [SR141716A]
- cell rounding, dose response, GPR55-expressing vs empty-vector HEK293 cells: cell rounding induced by AM251 and SR141716A was not observed in empty vector-transfected cells

— publication PMC9504244, “Lysophosphatidylinositol Induced Morphological Changes and Stress Fiber Formation through the GPR55-RhoA-ROCK Pathway” (International Journal of Molecular Sciences, 2022)
